According to ChEMBL document CHEMBL6134817, “Novel gut-restricted bivalent agonists targeting mucosal 5-HT4R: Design, synthesis, and biological evaluation” (Eur J Med Chem, 2025):
Active and inactive are the calls of the source. The calls are words filed in the database; no cut-off is given here.

Tests used:
[1] = biological target: T1, 5-hydroxytryptamine receptor 4 (Homo sapiens, UniProt Q13639); assay: Agonist activity at full-length human 5-HT4R stably expressed in HEK293 cells assessed as increase in intracellular cAMP level incubated for 30 mins under dark condition by reporter gene assay; assay type: functional, cell-based
[2] = biological target: T1, 5-hydroxytryptamine receptor 4; assay: Agonist activity at full-length human 5-HT4R stably expressed in HEK293 cells assessed as increase in intracellular cAMP level incubated for 30 mins under dark condition by reporter gene assay relative to control; assay type: functional, cell-based; details: filed as agonist
[3] = biological target: T1, 5-hydroxytryptamine receptor 4; assay: Displacement of [3H]-GR113808 from full-length human 5-HT4R stably expressed in HEK293 cell membrane by MicroBeta2 Reader analysis; assay type: cell membranes
[4] = biological target: T2, 5-hydroxytryptamine receptor 1A (Homo sapiens, UniProt P08908); assay: Inhibition of 5-HT1AR (unknown origin)
T2 sequence (P08908 whole entry): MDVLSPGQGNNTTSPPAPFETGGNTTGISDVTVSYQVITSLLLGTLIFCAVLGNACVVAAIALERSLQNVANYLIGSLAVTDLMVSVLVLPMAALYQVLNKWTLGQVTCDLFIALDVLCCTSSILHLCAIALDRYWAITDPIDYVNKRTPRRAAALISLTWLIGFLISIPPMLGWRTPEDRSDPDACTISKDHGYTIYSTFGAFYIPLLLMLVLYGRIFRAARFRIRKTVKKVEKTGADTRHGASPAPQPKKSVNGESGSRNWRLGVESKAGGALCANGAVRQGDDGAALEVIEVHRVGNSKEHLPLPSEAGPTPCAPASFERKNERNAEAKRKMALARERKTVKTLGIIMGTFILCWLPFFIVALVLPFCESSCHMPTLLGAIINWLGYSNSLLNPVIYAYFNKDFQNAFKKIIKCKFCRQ

[5] = biological target: 5-hydroxytryptamine receptor 1B (Homo sapiens, UniProt P28222); assay: Inhibition of 5-HT1BR (unknown origin)
[6] = biological target: 5-hydroxytryptamine receptor 2A (Homo sapiens, UniProt P28223); assay: Inhibition of 5-HT2AR (unknown origin)
[7] = biological target: 5-hydroxytryptamine receptor 2B (Homo sapiens, UniProt P41595); assay: Inhibition of 5-HT2BR (unknown origin)
[8] = biological target: T3, 5-hydroxytryptamine receptor 2C (Homo sapiens, UniProt P28335); assay: Inhibition of 5-HT2CR (unknown origin)
T3 sequence (P28335 whole entry): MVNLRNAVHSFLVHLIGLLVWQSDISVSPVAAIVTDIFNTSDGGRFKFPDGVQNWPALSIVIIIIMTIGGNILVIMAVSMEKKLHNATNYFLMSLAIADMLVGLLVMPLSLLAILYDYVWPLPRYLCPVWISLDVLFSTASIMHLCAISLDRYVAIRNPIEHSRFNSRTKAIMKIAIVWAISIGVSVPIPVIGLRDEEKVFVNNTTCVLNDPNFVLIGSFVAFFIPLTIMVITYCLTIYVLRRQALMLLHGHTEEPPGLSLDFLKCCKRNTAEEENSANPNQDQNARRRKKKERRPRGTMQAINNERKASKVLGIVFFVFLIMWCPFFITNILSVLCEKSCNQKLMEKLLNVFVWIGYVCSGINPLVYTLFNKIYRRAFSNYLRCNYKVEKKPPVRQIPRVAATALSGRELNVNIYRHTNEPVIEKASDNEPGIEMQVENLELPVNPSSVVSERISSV

[9] = biological target: Serotonin 3 (5-HT3) receptor; assay: Inhibition of 5-HT3R (unknown origin); assay type: protein-complex assay, Homo sapiens
[10] = biological target: T1, 5-hydroxytryptamine receptor 4; assay: Inhibition of 5-HT4R (unknown origin)
[11] = biological target: 5-hydroxytryptamine receptor 5A (Homo sapiens, UniProt P47898); assay: Inhibition of 5-HT5R (unknown origin)
[12] = biological target: 5-hydroxytryptamine receptor 6 (Homo sapiens, UniProt P50406); assay: Inhibition of 5-HT6R (unknown origin)
[13] = biological target: 5-hydroxytryptamine receptor 7 (Homo sapiens, UniProt P34969); assay: Inhibition of 5-HT7R (unknown origin)
[14] = Apparent permeability coefficient of compound at 10 uM incubated for 4 hrs by PAMPA; assay type: ADME
[15] = Permeability of compound assessed as compound recovery at 10 uM incubated for 4 hrs by PAMPA; assay type: ADME; details: read-out: Drug recovery
[16] = biological target: Voltage-gated inwardly rectifying potassium channel KCNH2 (Homo sapiens, UniProt Q12809); assay: Inhibition of hERG stably expressed in HEK293 cells by patch-clamp method; assay type: toxicity, cell-based
[17] = Stability in SGF at pH 1.5 assessed as half life by LC-MS/MS analysis; assay type: physicochemical
[18] = Stability in SIF at pH 6.8 assessed as half life by LC-MS/MS analysis; assay type: physicochemical
[19] = Stability in mouse plasma assessed as half life measured up to 120 mins by LC-MS/MS analysis; assay type: ADME, cell-free
[20] = Metabolic stability in human liver microsomes assessed as half life at 10 uM measured up to 60 mins in presence of NADPH by LC-MS/MS analysis; assay type: ADME, Microsome
[21] = Metabolic stability in rat liver microsomes assessed as half life at 10 uM measured up to 60 mins in presence of NADPH by LC-MS/MS analysis; assay type: ADME, Microsome
[22] = Metabolic stability in mouse liver microsomes assessed as half life at 10 uM measured up to 60 mins in presence of NADPH by LC-MS/MS analysis; assay type: ADME, Microsome
[23] = Metabolic stability in human liver microsomes assessed as intrinsic clearance measured per mg protein at 10 uM measured up to 60 mins in presence of NADPH by LC-MS/MS analysis; assay type: ADME, Microsome; details: read-out: CLH
[24] = Metabolic stability in rat liver microsomes assessed as intrinsic clearance measured per mg protein at 10 uM measured up to 60 mins in presence of NADPH by LC-MS/MS analysis; assay type: ADME, Microsome; details: read-out: CLH
[25] = Metabolic stability in mouse liver microsomes assessed as intrinsic clearance measured per mg protein at 10 uM measured up to 60 mins in presence of NADPH by LC-MS/MS analysis; assay type: ADME, Microsome; details: read-out: CLH
[26] = Cmax in fasted male C57BL/6J mouse at 10 mg/kg, po measured after 1 hr by LC-MS/MS analysis; assay type: ADME, organism-based; details: in vivo
[27] = Drug excretion in fasted male Sprague-Dawley rat at 5 mg/kg, po measured for 24 hrs by LC-MS/MS analysis; assay type: ADME, organism-based; details: in vivo, read-out: Drug excretion
[28] = Drug excretion in feces of fasted male Sprague-Dawley rat at 5 mg/kg, po measured for 24 hrs by LC-MS/MS analysis; assay type: ADME, organism-based; details: faeces, read-out: Drug excretion
Mus musculus [29] = assay: Induction of whole-gut transit in mouse assessed as decrease in time for carmine red dye excretion administered orally via gavage measured for every 5 mins; assay type: functional, organism-based; details: dose 3-15 mg/kg, route po
Mus musculus [30] = assay: Anti-constipation effect in mouse assessed as decrease in bead expulsion time at 3 to 15 mg/kg, po pretreated with compound 1 hr prior to glass bead insertion into distal colon measured after regaining conscious; assay type: functional, organism-based; details: dose 3-15 mg/kg
Mus musculus [31] = assay: Anti-constipation effect in mouse assessed as increase in fecal water content at 3 to 10 mg/kg, po measured after 1 hr; assay type: functional, organism-based; details: dose 3-10 mg/kg
Mus musculus [32] = assay: Anti-constipation effect in mouse assessed as increase in fecal output at 3 to 10 mg/kg, po measured after 1 hr; assay type: functional, organism-based; details: dose 3-10 mg/kg

T1 sequence (Q13639 whole entry): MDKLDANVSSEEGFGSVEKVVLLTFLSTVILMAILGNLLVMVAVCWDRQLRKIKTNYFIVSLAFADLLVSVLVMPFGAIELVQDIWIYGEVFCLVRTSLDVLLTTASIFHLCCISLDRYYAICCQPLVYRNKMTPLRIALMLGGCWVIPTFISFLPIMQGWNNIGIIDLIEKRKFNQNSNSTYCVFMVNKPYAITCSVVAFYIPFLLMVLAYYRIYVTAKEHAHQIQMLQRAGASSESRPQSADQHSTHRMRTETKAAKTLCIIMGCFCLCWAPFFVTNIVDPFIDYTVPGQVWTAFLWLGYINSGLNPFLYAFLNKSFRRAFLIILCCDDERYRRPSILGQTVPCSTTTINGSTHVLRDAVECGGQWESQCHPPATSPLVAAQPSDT
5-hydroxytryptamine receptor 7, sequence (P34969 whole entry): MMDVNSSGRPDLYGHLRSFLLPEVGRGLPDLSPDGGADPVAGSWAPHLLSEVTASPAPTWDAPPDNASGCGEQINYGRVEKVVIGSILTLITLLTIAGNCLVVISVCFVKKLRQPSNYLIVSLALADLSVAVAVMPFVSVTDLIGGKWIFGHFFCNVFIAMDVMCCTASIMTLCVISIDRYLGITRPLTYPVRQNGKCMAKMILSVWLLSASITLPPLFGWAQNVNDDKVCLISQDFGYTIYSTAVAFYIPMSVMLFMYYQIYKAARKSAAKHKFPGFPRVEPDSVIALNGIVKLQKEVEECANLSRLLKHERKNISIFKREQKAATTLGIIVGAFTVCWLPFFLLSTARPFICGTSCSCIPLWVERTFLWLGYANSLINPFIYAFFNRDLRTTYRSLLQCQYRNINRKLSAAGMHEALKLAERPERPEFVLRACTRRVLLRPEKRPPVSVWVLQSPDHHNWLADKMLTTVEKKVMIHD
Voltage-gated inwardly rectifying potassium channel KCNH2, sequence (Q12809 whole entry): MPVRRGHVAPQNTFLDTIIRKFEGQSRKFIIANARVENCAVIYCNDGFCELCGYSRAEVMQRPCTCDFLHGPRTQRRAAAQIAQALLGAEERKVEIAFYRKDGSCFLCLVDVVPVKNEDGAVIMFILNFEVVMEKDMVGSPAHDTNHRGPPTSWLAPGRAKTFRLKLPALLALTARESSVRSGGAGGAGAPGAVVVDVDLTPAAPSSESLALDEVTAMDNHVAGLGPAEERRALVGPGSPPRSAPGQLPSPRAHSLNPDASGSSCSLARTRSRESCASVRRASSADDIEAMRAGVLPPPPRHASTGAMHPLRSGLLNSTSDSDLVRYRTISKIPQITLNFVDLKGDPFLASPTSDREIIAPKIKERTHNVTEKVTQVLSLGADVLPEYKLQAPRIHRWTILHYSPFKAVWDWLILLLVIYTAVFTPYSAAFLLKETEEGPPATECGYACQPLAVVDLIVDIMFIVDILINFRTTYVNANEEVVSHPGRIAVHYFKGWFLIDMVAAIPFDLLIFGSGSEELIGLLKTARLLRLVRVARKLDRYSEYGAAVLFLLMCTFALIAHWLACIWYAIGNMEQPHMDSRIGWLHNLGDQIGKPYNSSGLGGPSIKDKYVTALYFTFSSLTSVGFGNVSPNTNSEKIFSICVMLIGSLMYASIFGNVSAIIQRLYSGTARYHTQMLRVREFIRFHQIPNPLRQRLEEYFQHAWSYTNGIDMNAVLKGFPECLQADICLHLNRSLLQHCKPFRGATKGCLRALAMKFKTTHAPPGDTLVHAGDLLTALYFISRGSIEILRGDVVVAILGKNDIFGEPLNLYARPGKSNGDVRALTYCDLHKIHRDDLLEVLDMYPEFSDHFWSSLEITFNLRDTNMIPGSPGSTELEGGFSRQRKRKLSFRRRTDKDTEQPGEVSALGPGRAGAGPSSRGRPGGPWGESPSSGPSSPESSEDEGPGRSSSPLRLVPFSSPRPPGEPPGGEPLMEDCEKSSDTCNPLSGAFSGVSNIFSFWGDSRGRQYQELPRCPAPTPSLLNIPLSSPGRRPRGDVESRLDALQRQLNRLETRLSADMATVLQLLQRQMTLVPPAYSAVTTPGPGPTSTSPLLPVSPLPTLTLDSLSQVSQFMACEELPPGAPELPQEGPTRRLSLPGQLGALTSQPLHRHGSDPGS
5-hydroxytryptamine receptor 2A, sequence (P28223 whole entry): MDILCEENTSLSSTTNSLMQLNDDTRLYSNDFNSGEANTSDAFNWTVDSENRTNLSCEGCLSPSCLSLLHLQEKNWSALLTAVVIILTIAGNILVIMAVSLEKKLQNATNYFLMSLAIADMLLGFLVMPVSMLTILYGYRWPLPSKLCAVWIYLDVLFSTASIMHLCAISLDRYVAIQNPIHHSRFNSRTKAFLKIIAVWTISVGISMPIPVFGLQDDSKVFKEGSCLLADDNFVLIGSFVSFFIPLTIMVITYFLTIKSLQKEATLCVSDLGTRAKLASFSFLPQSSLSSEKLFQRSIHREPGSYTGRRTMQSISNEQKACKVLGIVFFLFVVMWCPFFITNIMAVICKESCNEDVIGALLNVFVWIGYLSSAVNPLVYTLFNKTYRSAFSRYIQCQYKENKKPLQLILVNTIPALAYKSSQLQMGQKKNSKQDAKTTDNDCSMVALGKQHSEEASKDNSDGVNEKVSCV
5-hydroxytryptamine receptor 6, sequence (P50406 whole entry): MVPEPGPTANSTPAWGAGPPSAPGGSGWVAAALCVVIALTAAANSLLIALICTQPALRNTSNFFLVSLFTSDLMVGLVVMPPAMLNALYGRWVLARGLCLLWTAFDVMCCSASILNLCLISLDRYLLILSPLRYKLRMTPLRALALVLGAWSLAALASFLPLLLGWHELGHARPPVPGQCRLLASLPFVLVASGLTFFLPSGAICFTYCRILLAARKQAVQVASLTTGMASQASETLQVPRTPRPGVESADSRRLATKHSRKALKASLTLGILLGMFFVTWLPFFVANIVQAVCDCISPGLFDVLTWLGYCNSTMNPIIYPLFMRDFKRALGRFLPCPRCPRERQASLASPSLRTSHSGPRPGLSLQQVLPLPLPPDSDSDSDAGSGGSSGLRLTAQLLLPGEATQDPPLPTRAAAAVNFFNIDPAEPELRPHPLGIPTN
5-hydroxytryptamine receptor 5A, sequence (P47898 whole entry): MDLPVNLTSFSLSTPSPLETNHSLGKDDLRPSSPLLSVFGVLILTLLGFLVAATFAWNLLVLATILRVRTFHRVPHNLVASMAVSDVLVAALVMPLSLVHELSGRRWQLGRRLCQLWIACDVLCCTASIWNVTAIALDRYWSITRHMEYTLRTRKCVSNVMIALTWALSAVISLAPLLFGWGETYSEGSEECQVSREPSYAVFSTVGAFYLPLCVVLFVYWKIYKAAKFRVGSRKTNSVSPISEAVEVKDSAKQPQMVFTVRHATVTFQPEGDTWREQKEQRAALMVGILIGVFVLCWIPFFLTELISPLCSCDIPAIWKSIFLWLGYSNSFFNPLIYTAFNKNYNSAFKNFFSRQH
5-hydroxytryptamine receptor 2B, sequence (P41595 whole entry): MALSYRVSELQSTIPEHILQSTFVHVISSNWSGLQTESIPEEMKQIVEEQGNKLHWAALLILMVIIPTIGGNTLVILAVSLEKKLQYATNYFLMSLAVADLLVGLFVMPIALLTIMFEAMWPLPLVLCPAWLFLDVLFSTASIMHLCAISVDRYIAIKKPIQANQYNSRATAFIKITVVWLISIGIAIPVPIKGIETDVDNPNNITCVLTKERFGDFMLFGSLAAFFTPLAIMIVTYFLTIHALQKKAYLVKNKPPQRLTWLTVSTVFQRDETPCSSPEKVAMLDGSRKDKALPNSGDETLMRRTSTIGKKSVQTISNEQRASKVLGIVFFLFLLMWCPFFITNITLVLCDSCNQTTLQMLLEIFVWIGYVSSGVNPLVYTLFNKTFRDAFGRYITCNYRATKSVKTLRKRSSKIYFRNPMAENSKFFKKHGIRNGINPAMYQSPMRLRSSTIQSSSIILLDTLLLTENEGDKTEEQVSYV
5-hydroxytryptamine receptor 1B, sequence (P28222 whole entry): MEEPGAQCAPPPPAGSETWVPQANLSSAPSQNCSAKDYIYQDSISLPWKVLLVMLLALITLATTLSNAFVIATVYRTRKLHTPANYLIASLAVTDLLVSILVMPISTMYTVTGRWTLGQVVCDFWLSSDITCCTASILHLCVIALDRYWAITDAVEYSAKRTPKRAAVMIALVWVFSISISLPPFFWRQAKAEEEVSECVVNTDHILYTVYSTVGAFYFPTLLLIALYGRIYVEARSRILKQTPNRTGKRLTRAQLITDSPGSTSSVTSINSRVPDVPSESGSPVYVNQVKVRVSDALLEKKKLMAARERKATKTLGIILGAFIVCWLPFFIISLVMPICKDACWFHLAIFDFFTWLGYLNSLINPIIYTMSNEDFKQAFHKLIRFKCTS

Nc1c(Cl)cc(C(=O)NCC2CCN(CCCCCC(=O)NCCOCCOCCNC(=O)NCCCCNC(=O)NCCOCCOCCNC(=O)CCCCCN3CCC(CNC(=O)c4cc(Cl)c(N)c5c4OCC5)CC3)CC2)c2c1CCO2
EC50 [1]: 0.00041 µM
Efficacy [2]: 99.6%
Ki [3]: 0.0131 µM
IC50 [4]: > 10 µM
IC50 [5]: > 10 µM
IC50 [6]: > 1 µM
IC50 [7]: > 1 µM
IC50 [8]: > 10 µM
IC50 [9]: > 10 µM
IC50 [10]: 25.1 µM
IC50 [11]: > 10 µM
IC50 [12]: > 1 µM
IC50 [13]: > 10 µM
Papp at 4 h, 10 µM [14]: 3.1 ×10⁻⁶ cm/s
recovery at 4 h, 10 µM [15]: 83.1%
IC50 [16]: > 100 µM
half-life [17]: > 24 h
half-life [18]: > 24 h
half-life [19]: 3.06 h
half-life at 10 µM [20]: 0.356 h
half-life at 10 µM [21]: 4.62 h
half-life at 10 µM [22]: 7.7 h
microsomal CLint at 10 µM [23]: 64.8 µL/min/mg
microsomal CLint at 10 µM [24]: 5 µL/min/mg
microsomal CLint at 10 µM [25]: 3 µL/min/mg
Cmax [26]: 8.5 ng/mL
dose excreted at 24 h [27]: ~100%
dose excreted at 24 h [28]: ~100%
Activity (Mus musculus [29]): Dose-dependent-effect; Superior To Prucalopride Succinate At 10 Mg/Kg
Activity (Mus musculus [30]): Active
Activity (Mus musculus [31]): Active; Efficacy Comparable To Prucalopride Succinate At 10 Mg/Kg
Activity (Mus musculus [32]): Active; Efficacy Comparable To Prucalopride Succinate At 10 Mg/Kg
